# Results taken from US8436024B2, “2-pyridone compounds” (Astrazeneca AB, priority 2009, dated 2013).
# Tests used:
# [1] = biological target: T1, Human Neutrophil Elastase (HNE) (Homo sapiens, UniProt P08246); experiment: Human Neutrophil Elastase Quenched-FRET Assay; type: biochemical; conditions: geomean of measured IC50 values; HNE 0.17 nM, substrate MeOSuc-AAPV-AMC 100 μM, 90 min at room temperature; read-out: Inhibition of Human Neutrophil Elastase IC50
# T1 sequence (P08246 30-267): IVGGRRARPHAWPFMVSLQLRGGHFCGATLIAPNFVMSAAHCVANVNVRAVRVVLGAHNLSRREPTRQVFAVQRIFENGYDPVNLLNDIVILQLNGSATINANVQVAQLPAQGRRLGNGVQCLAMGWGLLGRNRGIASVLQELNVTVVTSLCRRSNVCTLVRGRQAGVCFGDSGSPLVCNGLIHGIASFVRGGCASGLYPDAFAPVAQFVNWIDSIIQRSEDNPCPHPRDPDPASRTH
# Experimental: Human Neutrophil Elastase Quenched-FRET Assay The assay uses Human Neutrophil Elastase (HNE) purified from serum (Calbiochem art. 324681; Ref Baugh, R. J. et al., 1976, Biochemistry. 15, 836-841). HNE was stored in 50 mM sodium acetate (NaOAc), 500 mM sodium chloride (NaCl), pH 5.5 with added 50% glycerol at −20° C. The protease substrate used was Elastase Substrate V Fluorogenic, MeOSuc-AAPV-AMC (Calbiochem art. 324740; Ref Castillo, M. J. et al., 1979, Anal. Biochem. 99, 53-64). The substrate was stored in dimethyl sulphoxide (DMSO) at −20° C. The assay additions were as follows: Test compounds and controls were added to black 384-well flat-bottom plates (Greiner 781076), 0.2 μL in 100% DMSO, followed by 10 μL HNE in assay buffer with 0.01% Triton (trade mark) X-100 detergent. The assay buffer constitution was: 100 mM Tris(hydroxymethyl)aminomethane (TRIS) (pH 7.5) and 500 mM NaCl. The enzyme and the compounds were incubated at room temperature for 15 minutes. Then 10 μL substrate in assay buffer was added. The assay was incubated for 90 minutes at room temperature. The concentrations of HNE enzyme and substrate during the incubation were 0.17 nM and 100 μM, respectively. The assay was then stopped by adding 20 μl stop solution (140 mM acetic acid, 200 mM sodium monochloroacetate, 60 mM sodium acetate, pH 4.3). Fluorescence was measured on a Wallac EnVision 2102 Multilabel Reader instrument at settings: Excitation 380 nm, Emission 460 nm. IC50 values were determined using Xlfit curve fitting using model 203. […] Specimen results are shown in the following Table in which the IC50 value represents the geomean of the IC50 values measured for a particular compound and “n” refers to the number of times the compound was tested: […]
# [2] = Humidity interaction (hygroscopicity determination) by Gravimetrical Vapour Sorption; type: physicochemical; conditions: for hygroscopicity: relative change in weight between 0% RH and 80% RH, second cycle, benzenesulfonate
# Experimental: Run time was 6.2 minutes; post time was 2.3 min; and detection was at 235 nm. • (v) In general, the course of reactions was followed by TLC and reaction times are given for illustration only. • (vi) Yields are given for illustration only and are not necessarily those which can be obtained by diligent process development; preparations were repeated if more material was required. • (vii) Chemical symbols have their usual meanings; SI units and symbols are used. • (viii) Solvent ratios are given in volume: volume (v/v) terms. • (ix) Mass spectra (MS) (loop) were recorded on a Micromass Platform LC equipped with HP 1100 detector; unless otherwise stated the mass ion quoted is (MH^+). • (x) X-ray Powder Diffraction patterns were collected on a PANalytical X′Pert PRO MPD theta-theta system, equipped with a focusing beam Johansson monochromator and an X′Celerator detector, using CuKα1 radiation (1.5406 Å, 45 kV, 40 mA). The diffraction pattern was collected between 2 and 40 °2θ in a continuous scan mode. The scan speed was 0.86°/min. with an increment of 0.016°. Samples were mounted on single silicon crystal wafer mounts. • (xi) Humidity Interaction (hygroscopicity determination): The gravimetric responses of test samples to changes in humidity were investigated using a TGA 5000 (TA Instruments) Gravimetrical Vapour Sorption (GVS). The relative humidity (RH) was raised in steps of 10% to 90% RH and lowered back to 0% RH in two cycles. Each level of RH was held until the equilibrium condition (sample weight change<0.005 wt % per 10 minutes) was reached. 3-5 mg of the test sample was placed in the cup and evaluated. The hygroscopicity was calculated as the relative change in weight of the sample between 0% RH at the start of the second cycle and 80% RH during the increase of humidity in the second cycle. […]
SMILES,IC50 [1],also measured
"Cc1c(-c2ccnn2-c2ccc(C#N)cc2)cc(C(=O)NCC[N+](C)(C)C)c(=O)n1-c1cccc(C(F)(F)F)c1 [Example 3, 2-[({5-[1-(4-cyanophenyl)-1H-pyrazol-5-yl]-6-methyl-2-oxo-1-[3-(trifluoromethyl)phenyl]-1,2-dihydropyridin-3-yl}carbonyl)amino]-N,N,N-trimethylethanaminium acetate]",1.05 nM,–
"Cc1c(-c2ccnn2-c2ccc(C#N)cc2)cc(C(=O)NCC[N+]2(C)CCCC2)c(=O)n1-c1cccc(C(F)(F)F)c1 [Example 1, 1-{2-[({5-[1-(4-cyanophenyl)-1H-pyrazol-5-yl]-6-methyl-2-oxo-1-[3-(trifluoromethyl)phenyl]-1,2-dihydropyridin-3-yl}carbonyl)amino]ethyl}-1-methylpyrrolidinium acetate]",0.949 nM,–
"Cc1c(-c2ccnn2-c2ccc(C#N)cc2)cc(C(=O)NCCC[N+]2(C)CCCC2)c(=O)n1-c1cccc(C(F)(F)F)c1 [Example 5, 1-{3-[({5-[1-(4-cyanophenyl)-1H-pyrazol-5-yl]-6-methyl-2-oxo-1-[3-(trifluoromethyl)phenyl]-1,2-dihydropyridin-3-yl}carbonyl)amino]propyl}-1-methylpyrrolidinium iodide]",0.971 nM,–
"Cc1c(-c2ccnn2-c2ccc(C#N)cc2)cc(C(=O)NCCC[N+](C)(C)C)c(=O)n1-c1cccc(C(F)(F)F)c1.O=S(=O)([O-])c1ccccc1 [Example 10, 3-(5-(1-(4-cyanophenyl)-1H-pyrazol-5-yl)-6-methyl-2-oxo-1-(3-(trifluoromethyl)phenyl)-1,2-dihydropyridine-3-carboxamido)-N,N,N-trimethylpropan-1-aminium benzenesulfonate]",–,hygroscopicity (in words) ([2]; description of the crystalline modification): low hygroscopicity; hygroscopicity ([2]; listed as Form B): 0.4 % (w/w)
"Cc1c(-c2ccnn2-c2ccc(C#N)cc2)cc(C(=O)NCCC[N+](C)(C)C)c(=O)n1-c1cccc(C(F)(F)F)c1 [Example 7, 3-(5-(1-(4-cyanophenyl)-1H-pyrazol-5-yl)-6-methyl-2-oxo-1-(3-(trifluoromethyl)phenyl)-1,2-dihydropyridine-3-carboxamido)-N,N,N-trimethylpropan-1-aminium bromide]",0.57 nM,–
"Cc1c(-c2ccnn2-c2ccc(C#N)cc2)nc(C(=O)NCCC[N+](C)(C)C)c(=O)n1-c1cccc(C(F)(F)F)c1 [Example 6, 3-[({6-[1-(4-cyanophenyl)-1H-pyrazol-5-yl]-5-methyl-3-oxo-4-[3-(trifluoromethyl)phenyl]-3,4-dihydropyrazin-2-yl}carbonyl)amino]-N,N,N-trimethylpropan-1-aminium iodide]",3.48 nM,–
"Cc1c(-c2ccnn2-c2ccc(C#N)cc2)cc(C(=O)NCCC[N+](C)(C)C)c(=O)n1-c1cccc(C(F)(F)F)c1.O=S(=O)([O-])c1ccccc1 [Example 9, 3-(5-(1-(4-cyanophenyl)-1H-pyrazol-5-yl)-6-methyl-2-oxo-1-(3-(trifluoromethyl)phenyl)-1,2-dihydropyridine-3-carboxamido)-N,N,N-trimethylpropan-1-aminium benzenesulfonate]",–,hygroscopicity ([2]; listed as Form A): 0.8 % (w/w)
"Cc1c(-c2ccnn2-c2ccc(C#N)cc2)cc(C(=O)NCCCC[N+]2(C)CCCC2)c(=O)n1-c1cccc(C(F)(F)F)c1 [Example 2, 1-{-4-[({5-[1-(4-cyanophenyl)-1H-pyrazol-5-yl]-6-methyl-2-oxo-1-[3-(trifluoromethyl)phenyl]-1,2-dihydropyridin-3-yl}carbonyl)amino]butyl}-1-methylpyrrolidinium acetate]",0.771 nM,–
"Cc1c(-c2ccnn2-c2ccc(C#N)cc2)cc(C(=O)NCCC[N+](C)(C)C)c(=O)n1-c1cccc(C(F)(F)F)c1 [Example 9a, 3-(5-(1-(4-cyanophenyl)-1H-pyrazol-5-yl)-6-methyl-2-oxo-1-(3-(trifluoromethyl)phenyl)-1,2-dihydropyridine-3-carboxamido)-N,N,N-trimethylpropan-1-aminium benzenesulfonate]",1.1 nM,–
"Cc1c(-c2ccnn2-c2ccc(C#N)cc2)cc(C(=O)NCCCC[N+](C)(C)C)c(=O)n1-c1cccc(C(F)(F)F)c1 [Example 4, 4-[({5-[1-(4-cyanophenyl)-1H-pyrazol-5-yl]-6-methyl-2-oxo-1-[3-(trifluoromethyl)phenyl]-1,2-dihydropyridin-3-yl}carbonyl)amino]-N,N,N-trimethylbutan-1-aminium iodide]",0.934 nM,–
